Laboratory results taken from patent US8975417B2, “Pyrazolopyrrolidine derivatives and their use in the treatment of disease” (Novartis AG, priority 2013, dated 2015).

Legend:
[1] = biological target: His-Brd4(44-477) (Homo sapiens (Human), UniProt O60885); test: TR-FRET in-vitro binding assay for BRD4; settings: biochemical
Summary of the method: (§1)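 Bromodomain protein (45 nM in its addition solution) and tetra-acetylated histone H4 peptide (AcK5/8/12/16; 60 nM in its addition solution) were incubated with compounds for 35 min at 30 °C in 50 mM HEPES pH 7.5, 50 mM NaCl, 0.005% Tween20, 0.1% BSA. Eu-anti-His6 plus streptavidin-allophycocyanin detection followed, with TR-FRET read-out.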

[2] = biological target: His-Brd2(60-472) (Homo sapiens (Human), UniProt P25440); test: TR-FRET in-vitro binding assay for BRD2; settings: biochemical
Summary of the method: as §1

[3] = system: THP-1 cells; test: Cell growth inhibition assay (CellTiter-Glo), THP-1; format: cell-based; settings: Homo sapiens, read-out: THP-1 TGI
Procedure: (§2) Cell Growth Inhibition Assay
(§3) The human leukemia cell lines MV-4-11, THP-1 and K-562 were employed to characterize the effect of BET inhibitors on cellular proliferation and viability. Cells were obtained from the American Type Culture Collection (ATCC) and cultured at 37° C. in a humidified 5% CO2 incubator in the following media: MV-4-11: DMEM high glucose (Animed #1-26F01-I), 10% FCS (Animed #2-01F26-I), 4 mM L-Glutamine (Animed #5-10K50), 1 mM Sodium Pyruvate (Animed # G03625P), 1× Penicillin-Streptomycin (Animed # F12478P); K-562: Iscove's MEM (Animed #1-28F16-I), 10% FCS (Animed #2-01F26-I), 4 mM L-Glutamine (Animed #5-10K50), 1× Penicillin-Streptomycin (Animed # F12478P); THP-1: RPMI-1640 (Animed #1-41F01-I), 10% FCS (Animed #2-01F26-I), 2 mM L-Glutamine (Animed #5-10K50), 10 mM HEPES (Animed #5-31F100), 1 mM Sodium Pyruvate (Animed # G03625P), 1× Penicillin-Streptomycin (Animed # F12478P). The AML lines MV-4-11 and THP-1 are very sensitive to BET inhibitors and show massive cell death upon BET inhibition (Zuber et al., Nature, 478 (2011), 524-8). Compound-mediated suppression of cell proliferation/viability was assessed by quantification of cellular ATP levels using the CellTiter-Glo (CTG) reagent (Promega). Briefly, cells were seeded in 20 μl fresh medium into 384-well plates, followed by addition of 5 μL medium containing compound dilutions at 5-fold their final intended concentration. Dose-response effects were assessed by 3-fold serial dilutions of the test compound, starting at 10 μM. Following incubation of the cells for days at 37° C. and 5% CO2, the effect of inhibitors on cell viability was quantified following addition of 20 μl CTG and luminescence quantification (integration time: 100 ms) as per vendor manual, using a correspondingly equipped Tecan M200 multi-mode platereader (TECAN, Switzerland). For data analysis, the assay background value determined in wells containing medium, but no cells, was subtracted from all data points. To enable differentiation of cytotoxic from cytostatic compounds, the number of viable cells is assessed relative to that observed at the time of compound addition using a separate cell plate (day 0). The effect of a particular test compound concentration on cell proliferation/viability is expressed as percentage of the background- and day 0-corrected luminescence reading obtained for cells treated with vehicle only (DMSO, 0.1% final concentration), which is set as 100%, whereas that luminescence reading for wells containing medium is set as −100%. Compound concentrations leading to half-maximal (IC50) and total growth inhibition (TGI) were determined using standard four parameter curve fitting.

[4] = biological target: His-CREBBP (1081-1197) bromodomain (Homo sapiens (Human), UniProt Q92793); test: AlphaScreen in-vitro binding assay for CREBBP; settings: biochemical
Summary of the method: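 Ni-chelate acceptor and streptavidin donor beads (45 µg/mL each, in 50 mM HEPES pH 7.5, 150 mM NaCl, 0.02% BSA) were then added for 60 min at room temperature. IC50 came from 8-point non-linear regression.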

[5] = system: MV-4-11 cells; test: Cell growth inhibition assay (CellTiter-Glo), MV-4-11; format: cell-based; settings: Homo sapiens, MV4-11, read-out: MV-4-11 TGI
Procedure: as §2, §3

[6] = biological target: His-Brd3(20-477) (Homo sapiens (Human), UniProt Q15059); test: TR-FRET in-vitro binding assay for BRD3; settings: biochemical
Summary of the method: as §1

[7] = system: K-562 cells; test: Cell growth inhibition assay (CellTiter-Glo), K-562; format: cell-based, human; settings: Homo sapiens, K562, read-out: K-562 TGI
Procedure: as §2, §3

Sequence of His-CREBBP (1081-1197) bromodomain (Q92793 1081-1197): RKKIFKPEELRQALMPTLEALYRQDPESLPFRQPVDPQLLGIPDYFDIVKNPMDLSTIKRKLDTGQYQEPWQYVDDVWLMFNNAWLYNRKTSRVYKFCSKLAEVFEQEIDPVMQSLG
Sequence of His-Brd3(20-477) (Q15059 20-477): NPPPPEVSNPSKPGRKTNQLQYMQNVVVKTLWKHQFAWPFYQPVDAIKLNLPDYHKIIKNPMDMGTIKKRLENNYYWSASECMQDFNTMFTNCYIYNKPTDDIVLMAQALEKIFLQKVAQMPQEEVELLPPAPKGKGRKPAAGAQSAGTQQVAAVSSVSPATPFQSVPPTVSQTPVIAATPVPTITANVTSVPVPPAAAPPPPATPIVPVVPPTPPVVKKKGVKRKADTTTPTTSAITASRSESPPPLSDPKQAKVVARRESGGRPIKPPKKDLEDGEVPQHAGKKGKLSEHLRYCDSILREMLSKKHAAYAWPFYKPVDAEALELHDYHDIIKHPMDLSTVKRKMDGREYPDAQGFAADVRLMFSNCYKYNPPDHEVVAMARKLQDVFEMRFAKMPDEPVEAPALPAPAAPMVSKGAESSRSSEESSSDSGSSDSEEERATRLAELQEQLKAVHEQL
Sequence of His-Brd2(60-472) (P25440 60-472): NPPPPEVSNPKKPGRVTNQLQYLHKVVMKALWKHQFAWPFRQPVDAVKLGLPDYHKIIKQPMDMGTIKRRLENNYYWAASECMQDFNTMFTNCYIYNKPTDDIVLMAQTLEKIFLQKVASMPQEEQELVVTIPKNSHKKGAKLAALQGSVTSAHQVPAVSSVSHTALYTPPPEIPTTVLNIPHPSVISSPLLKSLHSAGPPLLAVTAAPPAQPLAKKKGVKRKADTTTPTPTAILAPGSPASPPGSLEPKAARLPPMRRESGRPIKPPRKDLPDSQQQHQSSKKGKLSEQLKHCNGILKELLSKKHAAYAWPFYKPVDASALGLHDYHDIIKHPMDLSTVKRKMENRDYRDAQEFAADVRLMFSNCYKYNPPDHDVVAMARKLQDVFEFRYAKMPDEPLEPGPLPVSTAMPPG

Structure (SMILES) | IC50 [1] [nM] | IC50 [2] [nM] | IC (total growth inhibition) [3] [µM] | IC50 [4] [nM] | IC (total growth inhibition) [5] [µM] | IC50 [6] [nM] | IC (total growth inhibition) [7] [µM]
Cc1cc(N2C(=O)c3nn(C(C)C)c(C)c3C2c2ccc(Cl)cc2)cn(C)c1=O (stereo not shown) [Example 64, 4-(4-chlorophenyl)-5-(1,5-dimethyl-6-oxo-1,6-dihydropyridin-3-yl)-2-isopropyl-3-methyl-4,5-dihydropyrrolo[3,4-c]pyrazol-6(2H)-one] | 130 | 180 | 0.113 | 400 | 0.0423 | 110 | > 10
Cc1nn(C(C)C)c2c1C(c1ccc(Cl)cc1)N(c1cc(C)c(=O)n(C)c1)C2=O (stereo not shown) [Example 63, 4-(4-chlorophenyl)-5-(1,5-dimethyl-6-oxo-1,6-dihydropyridin-3-yl)-1-isopropyl-3-methyl-4,5-dihydropyrrolo[3,4-c]pyrazol-6(1H)-one] | 90 | 130 | 0.115 | 2500 | 0.0509 | 88 | > 10
CCn1nc2c(c1C)C(c1ccc(Cl)cc1F)N(c1cc(C)c3nnc(C)n3c1)C2=O (stereo not shown) [Example 186, 4-(4-chloro-2-fluorophenyl)-5-(3,8-dimethyl-[1,2,4]triazolo[4,3-a]pyridin-6-yl)-2-ethyl-3-methyl-4,5-dihydropyrrolo[3,4-c]pyrazol-6(2H)-one] | 69 | 140 | 0.145 | 6100 | 0.0882 | 61 | > 10
COc1ccccc1-n1nc(C)c2c1C(=O)N(c1cc(C)c3nnc(C)n3c1)C2c1ccc(F)cc1F (stereo not shown) [Example 177, 4-(2,4-difluorophenyl)-5-(3,8-dimethyl-[1,2,4]triazolo[4,3-a]pyridin-6-yl)-1-(2-methoxyphenyl)-3-methyl-4,5-dihydropyrrolo[3,4-c]pyrazol-6(1H)-one] | 16 |  | 0.153 | 11000 | 0.114 | 30 | > 10
Cc1nn(C2CC2)c2c1C(c1ccc(Cl)cc1)N(c1cc(C)c3nnc(C)n3c1)C2=O (stereo not shown) [Example 92, 4-(4-chlorophenyl)-1-cyclopropyl-5-(3,8-dimethyl-[1,2,4]triazolo[4,3-a]pyridin-6-yl)-3-methyl-4,5-dihydropyrrolo[3,4-c]pyrazol-6(1H)-one] |  |  | 0.0395 | 14900 | 0.0175 | 27 | > 10
Cc1n[nH]c2c1C(c1ccc(Cl)cc1F)N(c1cc(C)c3nnc(C)n3c1)C2=O (stereo not shown) [Example 183, 4-(4-chloro-2-fluorophenyl)-5-(3,8-dimethyl-[1,2,4]triazolo[4,3-a]pyridin-6-yl)-3-methyl-4,5-dihydropyrrolo[3,4-c]pyrazol-6(2H)-one] | 82 |  | 0.314 | > 24000 | 0.126 | 75 | > 10
COc1ncc(-n2nc3c(c2C(C)C)[C@H](c2ccc(Cl)cc2)N(c2cc(C)c4onc(C)c4c2)C3=O)c(OC)n1 [Example 61, (S)-4-(4-chlorophenyl)-2-(2,4-dimethoxypyrimidin-5-yl)-5-(3,7-dimethylbenzo[d]isoxazol-5-yl)-3-isopropyl-4,5-dihydropyrrolo[3,4-c]pyrazol-6(2H)-one] | > 37000 |  | > 10 | > 37000 | 1.09 | > 37000 | > 10
COCc1nn(C2CC2)c2c1[C@@H](c1ccc(Cl)cc1)N(c1cc(C)c3nnc(C)n3c1)C2=O [Example 163, […]] | < 11 |  | 0.0461 | 11000 | 0.022 |  | > 10
COc1ccccc1-n1nc(C)c2c1C(=O)N(c1cc(C)c3nnc(C)n3c1)C2c1ccc(Cl)cc1F (stereo not shown) [Example 187, 4-(4-chloro-2-fluorophenyl)-5-(3,8-dimethyl-[1,2,4]triazolo[4,3-a]pyridin-6-yl)-1-(2-methoxyphenyl)-3-methyl-4,5-dihydropyrrolo[3,4-c]pyrazol-6(1H)-one] | 27 |  | 0.223 | 33000 | 0.209 | 42 | > 10
Cc1nn(C2CC2)c2c1C(c1ccc(Cl)cc1)N(c1cn(C)c(=O)c3[nH]ccc13)C2=O (stereo not shown) [Example 160, 4-(4-(4-chlorophenyl)-1-cyclopropyl-3-methyl-6-oxopyrrolo[3,4-c]pyrazol-5(1H,4H,6H)-yl)-6-methyl-1H-pyrrolo[2,3-c]pyridin-7(6H)-one] | 30 |  | 0.107 | 4400 | 0.102 | 52 | > 10
Cc1cc(N2C(=O)c3c(c(CF)nn3C3CC3)C2c2ccc(Cl)cc2)cn2c(C)nnc12 (stereo not shown) [Example 159, 4-(4-chlorophenyl)-1-cyclopropyl-5-(3,8-dimethyl-[1,2,4]triazolo[4,3-a]pyridin-6-yl)-3-(fluoromethyl)-4,5-dihydropyrrolo[3,4-c]pyrazol-6(1H)-one] | 46 |  | 0.0855 | 6600 | 0.0812 | 50 | > 10
Cc1cc(N2C(=O)c3c(c(C4CC4)nn3C)[C@H]2c2ccc(Cl)cc2)cn2c(C)nnc12 [Example 164, (R)-4-(4-chlorophenyl)-3-cyclopropyl-5-(3,8-dimethyl-[1,2,4]triazolo[4,3-a]pyridin-6-yl)-1-methyl-4,5-dihydropyrrolo[3,4-c]pyrazol-6(1H)-one] |  |  | 0.0173 | 5100 | 0.0118 |  | > 10
Cc1nn(C2CC2)c2c1[C@@H](c1ccc(Cl)cc1)N(c1cc(C)c3nnc(C)n3c1)C2=O [Example 119, (R)-4-(4-chlorophenyl)-1-cyclopropyl-5-(3,8-dimethyl-[1,2,4]triazolo[4,3-a]pyridin-6-yl)-3-methyl-4,5-dihydropyrrolo[3,4-c]pyrazol-6(1H)-one] |  |  | 0.0226 | 8900 | 0.0116 | 17 | > 10
Cc1cc(N2C(=O)c3nn(C)cc3[C@H]2c2ccc(Cl)cc2)cn(C)c1=O [Example 16, (R)-4-(4-chlorophenyl)-5-(1,5-dimethyl-6-oxo-1,6-dihydropyridin-3-yl)-2-methyl-4,5-dihydropyrrolo[3,4-c]pyrazol-6(2H)-one] | 81 | 100 | 0.207 |  | 0.116 | 66 | > 10
